Reference: US9072757B2, “Combination of an HMG-CoA reductase inhibitor and a farnesyl-pyrophosphate synthase inhibitor for the treatment of diseases related to the persistence and/or accumulation of prenylated proteins” (UNIVERSITE DE LA MEDITERRANEE AIX-MARSEILLE II, priority 2006, dated 2015)

What was measured:
[1] = tested on: healthy cells; assay: Immunohistochemistry: deformed nuclei / toxicity on healthy reference cells; format: cell-based, human; conditions: Pravastatin 100 μM for 12 hours, zoledronate 20 μM for 6 hours; in combination or alone (FIG. 3)
Protocol: (§1) The cell lines are either reference fibroblasts AG16409 from the Coriell Institute, or fibroblasts from biopsies of patients suffering from Restrictive Dermopathy. They are cultivated at 37° C. in 5% CO2 in a P2 room.
(§2) A cell culture is trypsinised and the cells counted on a Neubauer cell.
(§3) Labtech-style culture wells (Nunc, ref 177399) are seeded, at the rate of 5×10^4 cells per well.
(§4) The complete culture medium is supplemented by the treatment or treatments (statin, NBP, or both), and the cells cultivated for an ad hoc time.
(§5) The cells are fixed in a paraformaldehyde 4% solution (in PBS) for 10 minutes at room temperature.
(§6) The primary antibody is diluted to 1/100th in 50 μl of incubation solution and put in contact with the cells for 1 hour at room temperature in a humid chamber.
Incubation with the secondary antibody takes place for 1 hour in 50 ml of incubation solution at room temperature in a humid chamber. The secondary antibodies are of two types: • Anti-mouse donkey, Jackson Immunoresearch, dilution to 1/100th • Anti-goat donkey, Jackson Immunoresearch, dilution to 1/200th […]
(§7) The cells are immersed in a drop of VectaShield (Vector), covered with an object-covering blade and observed on a fluorescence microscope (Leica DMR, Leica Microsystems), equipped with a coolSNAP (Princeton) camera system.

[2] = tested on: prelamin A; assay: Immunohistochemistry (immunomarking): level of prelamin A in healthy reference cells; format: cell-based, human; conditions: Pravastatin 100 μM for 12 hours, zoledronate 20 μM for 6 hours; in combination or alone (FIG. 3)
Protocol: as §1, §2, §3, §4, §5
After defrosting, the cells are incubated for 5 minutes at room temperature in a humid chamber in 50 μl of a permeabilisation solution:
as §6
Incubation with the secondary antibody takes place for 1 hour in 50 ml of incubation solution at room temperature in a humid chamber. […]
as §7

## CC[C@H](C)C(=O)O[C@H]1C[C@H](O)C=C2C=C[C@H](C)[C@H](CC[C@@H](O)C[C@@H](O)CC(=O)O)[C@H]21 [pravastatin]
[1]
  level of deformed nuclei (the sign of toxicity on the healthy cells): approximately 12%
[2]
  level of prelamin A produced in treated healthy cells: 25%

## (1-hydroxy-2-imidazol-1-yl-phosphono-ethyl)phosphonic acid [zoledronate]
[2]
  level of prelamin A produced in treated healthy cells: 15%
